Measurements from patent publication US5795615A, “Process for producing metal carboxylates for use as animal feed supplements” (priority 1995, dated 1998).

How the values were obtained:
[1] = Comparative zinc bioavailability: growth parameters and zinc levels in blood and tibia ash of broilers; details: for Relative Biological Availability (%): Ending body weight (lbs) 21 days / Relative Biological Availability (%): Body weight gain (lbs) 21 days: broilers fed 21 days; for Relative Biological Availability (%): Ending body weight (lbs) 21 days: relative to zinc sulfate arbitrarily set at 100%, superscripts: means in a row without common superscript differ (P < 0.05, LSD)
Description: Each zinc treatment was replicated eight times and each pen contained ten male birds.
Basal feeds and zinc compound were mixed in a horizontal feed mixer providing the desired ingredient composition as shown in Table 4. The broilers were fed the rations for 21 days. Feed weights were taken during the trial. Body weights were measured at the beginning and at the end of the trial. On day 21, zinc levels in the blood and tibia ash were determined. The assay procedures for total tibia zinc content or concentration to assess zinc utilization are similar to those used by Wedekind et al., J. Anim. Sci., 70:178-187 (1992). The data were analyzed according to the SAS statistical package.
Chick growth parameters and zinc levels in the blood and tibia ash were used as criteria to determine the biological availability of zinc. […] The biological availability of zinc sulfate was arbitrarily set at 100%.

[2] = cited from earlier work
[3] = relative to zinc sulfate set at 100%, superscripts: P < 0.05, LSD
[4] = broilers, relative to zinc sulfate set at 100%, superscripts: P < 0.05, LSD
[5] = broilers, day 21, relative to zinc sulfate set at 100%, superscripts: P < 0.05, LSD

| SMILES | Relative Biological Availability (%): Ending body weight (lbs) 21 days [1] | Relative Biological Availability (%): Body weight gain (lbs) 21 days [1, 3] | Relative Biological Availability (%): Feed conversion (corr.) 3-21 days [1, 4] | Relative Biological Availability (%): Bone ash (%) 21 days [1, 5] | Relative Biological Availability (%): Plasma Zinc (μg/ml) ([1]; chicken, in vivo, 30240 min) | Relative Biological Availability (%): Tibia ash zinc (μg/g) ([1]; chicken, in vivo, 30240 min) | solubility in water [2] | ending body weights compared with zinc sulfate ([1]; both the 10 mg/kg and 20 mg/kg levels) | Relative Biological Availability (%): Plasma Zinc (μg/ml) ([1]; broilers, day 21, plasma, relative to zinc sulfate set at 100%, superscripts: P < 0.05, LSD) | Relative Biological Availability (%): Tibia ash zinc (μg/g) ([1]; broilers, day 21, tibia ash, relative to zinc sulfate set at 100%, superscripts: P < 0.05, LSD) | levels of zinc in the blood and tibia ash on day 21 ([1]; day 21, zinc propionate versus zinc methionine) |
| --- | --- | --- | --- | --- | --- | --- | --- | --- | --- | --- | --- |
| O=S(=O)([O-])[O-].[Zn+2] [Sulfate, zinc sulfate, reference compound] | 100.00% | 100.00% | 100.00% | 100.00% | 100.00% | 100.00% |  |  |  |  |  |
| [O]=[Zn] [Zinc oxide, zinc oxide] |  |  |  |  |  |  | 0.00016 g/100 ml |  |  |  |  |
| CSCC[C@H](N)C(=O)O.O=S(=O)([O-])O.O=S(=O)([O-])O.[Zn+2] [Zinpro ®, Zinc methionine bisulfate] | 132.46% | 131.52% | 90.38% | 113.95% |  |  |  | statistically significant higher ending body weights | 124.00% | 123.99% | comparable levels of zinc |
